Data published in PubChem BioAssay (NCI).
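Cells were grown in 96-well plates and exposed to each compound for 48 hours at five concentrations; endpoints were interpolated linearly between bracketing concentrations, or set to the highest concentration if not reached. GI50: concentration for 50% inhibition of growth. Definition used: TGI = concentration required for complete inhibition of growth.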

How the values were obtained:
Assay in all cases: NCI-60 cell line screen, 48 h
HS 578T breast = test system: HS 578T breast
NCI-H460 lung = test system: NCI-H460 lung
OVCAR-8 ovarian = test system: OVCAR-8 ovarian
HCC-2998 colon = test system: HCC-2998 colon
TK-10 renal = test system: TK-10 renal
K-562 leukemia = test system: K-562 leukemia
SNB-75 CNS = test system: SNB-75 CNS
RXF 393 renal = test system: RXF 393 renal
RPMI-8226 leukemia = test system: RPMI-8226 leukemia
M14 melanoma = test system: M14 melanoma

SMILES	GI50 (HS 578T breast)	TGI (HS 578T breast)	GI50 (NCI-H460 lung)	TGI (NCI-H460 lung)	GI50 (OVCAR-8 ovarian)	TGI (OVCAR-8 ovarian)	GI50 (HCC-2998 colon)	TGI (HCC-2998 colon)	GI50 (TK-10 renal)	TGI (TK-10 renal)	GI50 (K-562 leukemia)	TGI (K-562 leukemia)	GI50 (SNB-75 CNS)	TGI (SNB-75 CNS)	GI50 (RXF 393 renal)	TGI (RXF 393 renal)	GI50 (RPMI-8226 leukemia)	TGI (RPMI-8226 leukemia)	GI50 (M14 melanoma)	TGI (M14 melanoma)
Cc1nc2sc(C(=O)Nc3cccc(Br)c3C)c(N)c2cc1C(O)c1ccccc1 (configuration not stated)	0.0345 µM	6.04 µM	0.0342 µM	0.156 µM	0.0487 µM	> 100 µM	0.0351 µM	2.12 µM	1.49 µM	> 63 µM	0.0354 µM	> 100 µM	0.0279 µM	13.4 µM	0.0294 µM	26 µM	0.0455 µM	7.08 µM	0.0306 µM	14.7 µM
CC1(C)C(N2CCOCC2)CS1(=O)=O (configuration not stated)		> 10 µM		> 10 µM		> 10 µM		> 10 µM		> 10 µM		> 10 µM		> 10 µM		> 10 µM		> 10 µM		> 10 µM
C[C@]12CC[C@H](O[C@@H]3O[C@H](CO[C@@H]4O[C@H](CO)[C@@H](O)[C@H](O)[C@H]4O)[C@@H](O)[C@H](O)[C@H]3O)C[C@@H]1CC[C@@H]1[C@@H]2CC[C@]2(C)[C@@H](C3=CC(=O)OC3)CC[C@]12O		> 100 µM		> 44.9 µM		96.9 µM		51 µM		> 51.6 µM		> 100 µM		> 84.7 µM		41.1 µM		> 87.9 µM		62.9 µM
Brc1ccccc2cc(-c3ccccc3)nc1-2		> 100 µM		73.5 µM		> 50.2 µM		10.8 µM		30.8 µM		> 61.2 µM		51.5 µM		16.7 µM		29.7 µM		28.3 µM
O=C(O)CCC(c1ccccc1)(c1ccccc1)c1ccccc1		> 100 µM		> 91.2 µM		> 100 µM		> 100 µM		> 100 µM		> 100 µM	> 100 µM	> 100 µM	49.5 µM	> 100 µM		> 94.3 µM		> 100 µM
COc1cccc2c1C(=O)c1c(O)c3c(c(O)c1C2=O)C[C@@](O)(/C(CO)=N/NC(=O)CCCCCN1C(=O)C=CC1=O)C[C@@H]3O[C@H]1C[C@H](N)[C@H](O)[C@H](C)O1	1.69 µM	9.64 µM	0.0889 µM	1.95 µM	1.14 µM	97.4 µM	1.5 µM	> 58.1 µM	1.68 µM	> 27.4 µM	0.825 µM	> 52.5 µM	0.368 µM	2.99 µM	0.984 µM	3.85 µM	0.32 µM	> 28.2 µM	1.06 µM	11 µM
C[C@@H](Nc1cc(F)cc(F)c1)c1cc(C(=O)N(C)C)cc2c(=O)cc(N3CCOCC3)oc12	0.693 µM	23.6 µM	5.61 µM	> 100 µM	25.5 µM	> 100 µM	10.4 µM	> 100 µM	2.64 µM	> 100 µM	67.2 µM	> 100 µM	0.0398 µM	3.64 µM	0.0251 µM	0.973 µM	36.7 µM	> 100 µM	24.3 µM	> 100 µM
Oc1ccc2c(=S)cc(-c3ccc(Br)cc3)oc2c1O	6.69 µM	> 100 µM	0.973 µM	19 µM	2.28 µM	8.92 µM	2.28 µM	7.03 µM	4.16 µM	14.7 µM	2.47 µM	> 100 µM	4.56 µM	> 100 µM	2.51 µM	8.78 µM	1.32 µM	18.3 µM	2.01 µM	6.56 µM
C#C[C@@]1(O)[C@@H](CO)O[C@@H](n2cc(Br)c3c(Cl)ccnc32)[C@@H]1O	1.01 µM	> 100 µM	4.29 µM	> 100 µM	0.343 µM	1.91 µM	2.89 µM	> 100 µM	> 67 µM	> 100 µM	0.542 µM	> 100 µM	0.657 µM	> 39.2 µM	0.283 µM	1.23 µM	1.73 µM	5.97 µM	17 µM	> 100 µM
COC(=O)[C@]12CC[C@@H](C)[C@H](C)[C@@H]1C1=CC[C@@H]3[C@@]4(C)C(C=O)=C[C@@](C)(CO)[C@@H]4[C@H](O)C[C@@]3(C)[C@]1(C)CC2	4.82 µM	26.4 µM	3.03 µM	9.6 µM	3.51 µM	14.4 µM	3.13 µM	9.45 µM	2.49 µM	9.42 µM	3.86 µM	15.5 µM	2.72 µM	19.3 µM	2.64 µM	8.75 µM	2.44 µM	7.74 µM	4.13 µM	17.8 µM
CC12OC(CC(O)C1O)n1c3ccccc3c3c4c(c5c6ccccc6n2c5c31)C(=O)N(CCN1CCOCC1)C4=O (configuration not stated)	1.92 µM	10.2 µM	0.205 µM	1.7 µM	1.43 µM	8.71 µM	3.25 µM	10.6 µM	0.953 µM	5.48 µM	1.25 µM	10.4 µM	0.765 µM	5.37 µM	1.31 µM	5.03 µM	1.55 µM	9.87 µM	0.912 µM	4.54 µM
COC(=O)c1c[nH]c2cc(OC(C)C)c(OC(C)C)cc2c1=O	> 100 µM	> 100 µM	> 100 µM	> 100 µM	> 100 µM	> 100 µM	> 100 µM	> 100 µM	> 100 µM	> 100 µM	> 100 µM	> 100 µM	> 100 µM	> 100 µM	> 100 µM	> 100 µM	> 100 µM	> 100 µM	> 100 µM	> 100 µM
O=C(Nc1nc(-c2ccc(Cl)cc2)cs1)c1cc(O)c(O)c(O)c1	479 µM	> 5000 µM	181 µM	964 µM	150 µM	> 5000 µM	700 µM	2080 µM	207 µM	1470 µM	167 µM	> 5000 µM	162 µM	3990 µM	166 µM	923 µM	197 µM	1680 µM	244 µM	4610 µM
